Our source for the mutagenic call values is PubChem BioAssay AID1259407 (Chemical Carcinogenesis Research Information System (CCRIS), 2018).

The data set deals with CCRIS mutagenicity, Ames/micronucleus/aberration tests. In words: CCRIS mutagenicity studies.
Setting [1] is: Test System: AMES SALMONELLA TYPHIMURIUM, Strain/Indicator: TA98, Metabolic Activation: NONE, Method: STANDARD PLATE.
[2] abbreviates: Test System: AMES SALMONELLA TYPHIMURIUM, Strain/Indicator: TA98, Metabolic Activation: RAT, LIVER, S-9, AROCLOR 1254, Method: STANDARD PLATE.
Setting [3] is: Test System: AMES SALMONELLA TYPHIMURIUM, Strain/Indicator: TA100, Metabolic Activation: NONE, Method: STANDARD PLATE.
[4] abbreviates: Test System: AMES SALMONELLA TYPHIMURIUM, Strain/Indicator: TA100, Metabolic Activation: RAT, LIVER, S-9, AROCLOR 1254, Method: STANDARD PLATE.
Setting [5] is: Test System: AMES SALMONELLA TYPHIMURIUM, Strain/Indicator: TA1535, Metabolic Activation: NONE, Method: STANDARD PLATE.
Setting [6] is: Test System: AMES SALMONELLA TYPHIMURIUM, Strain/Indicator: TA1535, Metabolic Activation: RAT, LIVER, S-9, AROCLOR 1254, Method: STANDARD PLATE.
[7] abbreviates: Test System: AMES SALMONELLA TYPHIMURIUM, Strain/Indicator: TA1537, Metabolic Activation: NONE, Method: STANDARD PLATE.
Where [8] appears, read: Test System: AMES SALMONELLA TYPHIMURIUM, Strain/Indicator: TA1537, Metabolic Activation: RAT, LIVER, S-9, AROCLOR 1254, Method: STANDARD PLATE.

SMILES strings stand for the structures. The source made the active and inactive calls. No rule for the calls is given here.

On to `O=C1Nc2ccc(Cl)cc2C(c2ccccc2)=NC1O` (stereo unspecified), for which the mutagenic call was “active; positive” (End Point: IN VITRO MICRONUCLEUS, Test System: HUMAN - HUMAN AMNIOTIC FLUID FIBROBLAST-LIKE (AFFL) CELLS, Metabolic Activation: NONE); “active; positive” (End Point: IN VITRO MICRONUCLEUS, Test System: MOUSE LYMPHOMA L5178Y CELLS, Metabolic Activation: NONE); “active; positive” (End Point: IN VITRO MICRONUCLEUS, Test System: SYRIAN HAMSTER EMBRYO FIBROBLAST (SHE) CELLS, Metabolic Activation: NONE); “inactive; negative” (Test System: AMES SALMONELLA TYPHIMURIUM, Strain/Indicator: TA97, Metabolic Activation: HAMSTER, LIVER, S-9, AROCLOR 1254 (10%), Method: PREINCUBATION); “inactive; negative” (Test System: AMES SALMONELLA TYPHIMURIUM, Strain/Indicator: TA97, Metabolic Activation: HAMSTER, LIVER, S-9, AROCLOR 1254 (30%), Method: PREINCUBATION); “inactive; negative” (Test System: AMES SALMONELLA TYPHIMURIUM, Strain/Indicator: TA97, Metabolic Activation: NONE, Method: PREINCUBATION). For the same molecule, the mutagenic call is, setting by setting: (Test System: AMES SALMONELLA TYPHIMURIUM, Strain/Indicator: TA97, Metabolic Activation: RAT, LIVER, S-9, AROCLOR 1254 (30%), Method: PREINCUBATION) “inactive; negative”; (Test System: AMES SALMONELLA TYPHIMURIUM, Strain/Indicator: TA98, Metabolic Activation: HAMSTER, LIVER, S-9, AROCLOR 1254 (10 OR 30%), Method: PREINCUBATION) “inactive; negative”; (Test System: AMES SALMONELLA TYPHIMURIUM, Strain/Indicator: TA98, Metabolic Activation: NONE, Method: PREINCUBATION) “inactive; negative”; under setting [1], “inactive; negative”; (Test System: AMES SALMONELLA TYPHIMURIUM, Strain/Indicator: TA98, Metabolic Activation: RAT, LIVER, S-9, AROCLOR 1254 (10 OR 30%), Method: PREINCUBATION) “inactive; negative”; under setting [2], “inactive; negative”. Also, the mutagenic call is “inactive; negative” (Test System: AMES SALMONELLA TYPHIMURIUM, Strain/Indicator: TA100, Metabolic Activation: HAMSTER, LIVER, S-9, AROCLOR 1254 (10%), Method: PREINCUBATION); “inactive; negative” (Test System: AMES SALMONELLA TYPHIMURIUM, Strain/Indicator: TA100, Metabolic Activation: HAMSTER, LIVER, S-9, AROCLOR 1254 (30%), Method: PREINCUBATION); “inactive; negative” (Test System: AMES SALMONELLA TYPHIMURIUM, Strain/Indicator: TA100, Metabolic Activation: NONE, Method: PREINCUBATION); “inactive; negative” under setting [3]; “inactive; negative” (Test System: AMES SALMONELLA TYPHIMURIUM, Strain/Indicator: TA100, Metabolic Activation: RAT, LIVER, S-9, AROCLOR 1254 (10%), Method: PREINCUBATION); “inactive; negative” (Test System: AMES SALMONELLA TYPHIMURIUM, Strain/Indicator: TA100, Metabolic Activation: RAT, LIVER, S-9, AROCLOR 1254 (30%), Method: PREINCUBATION). The mutagenic call was “inactive; negative” under setting [4]; “inactive; negative” (Test System: AMES SALMONELLA TYPHIMURIUM, Strain/Indicator: TA102, Metabolic Activation: HAMSTER, LIVER, S-9, AROCLOR 1254 (10%), Method: PREINCUBATION); “inactive; negative” (Test System: AMES SALMONELLA TYPHIMURIUM, Strain/Indicator: TA102, Metabolic Activation: HAMSTER, LIVER, S-9, AROCLOR 1254 (30%), Method: PREINCUBATION); “inactive; negative” (Test System: AMES SALMONELLA TYPHIMURIUM, Strain/Indicator: TA102, Metabolic Activation: NONE, Method: PREINCUBATION); “inactive; negative” (Test System: AMES SALMONELLA TYPHIMURIUM, Strain/Indicator: TA102, Metabolic Activation: RAT, LIVER, S-9, AROCLOR 1254 (10%), Method: PREINCUBATION); “inactive; negative” (Test System: AMES SALMONELLA TYPHIMURIUM, Strain/Indicator: TA102, Metabolic Activation: RAT, LIVER, S-9, AROCLOR 1254 (30%), Method: PREINCUBATION). Besides, the mutagenic call reads like this: (Test System: AMES SALMONELLA TYPHIMURIUM, Strain/Indicator: TA1535, Metabolic Activation: HAMSTER, LIVER, S-9, AROCLOR 1254 (10%), Method: PREINCUBATION) “inactive; negative”; (Test System: AMES SALMONELLA TYPHIMURIUM, Strain/Indicator: TA1535, Metabolic Activation: HAMSTER, LIVER, S-9, AROCLOR 1254 (30%), Method: PREINCUBATION) “inactive; negative”; (Test System: AMES SALMONELLA TYPHIMURIUM, Strain/Indicator: TA1535, Metabolic Activation: NONE, Method: PREINCUBATION) “inactive; negative”; under setting [5], “inactive; negative”; (Test System: AMES SALMONELLA TYPHIMURIUM, Strain/Indicator: TA1535, Metabolic Activation: RAT, LIVER, S-9, AROCLOR 1254 (10%), Method: PREINCUBATION) “inactive; negative”; (Test System: AMES SALMONELLA TYPHIMURIUM, Strain/Indicator: TA1535, Metabolic Activation: RAT, LIVER, S-9, AROCLOR 1254 (30%), Method: PREINCUBATION) “inactive; negative”. The mutagenic call was “inactive; negative” under setting [6], “inactive; negative” under setting [7] and “inactive; negative” under setting [8].
As for `CCCCCOC(=O)NO`, the mutagenic call (Test System: E. COLI, Strain/Indicator: WP2 UVRA, Metabolic Activation: NONE, Method: FLUCTUATION TEST) was “active; positive”.
`O.O.O.O=C([O-])[C@H]([O-])[C@@H]([O-])C(=O)[O-].O=C([O-])[C@H]([O-])[C@@H]([O-])C(=O)[O-].[K+].[K+].[Sb+3].[Sb+3]`: the mutagenic call by setting is: (Test System: AMES SALMONELLA TYPHIMURIUM, Strain/Indicator: TA98, Metabolic Activation: HAMSTER, LIVER, S-9, AROCLOR 1254, Method: STANDARD PLATE) “inactive; negative”; under setting [1], “inactive; negative”; under setting [2], “inactive; negative”; (Test System: AMES SALMONELLA TYPHIMURIUM, Strain/Indicator: TA100, Metabolic Activation: HAMSTER, LIVER, S-9, AROCLOR 1254, Method: STANDARD PLATE) “inactive; negative”; under setting [3], “inactive; negative”; under setting [4], “inactive; negative”. Also, the mutagenic call runs as follows: (Test System: AMES SALMONELLA TYPHIMURIUM, Strain/Indicator: TA1535, Metabolic Activation: HAMSTER, LIVER, S-9, AROCLOR 1254, Method: STANDARD PLATE) “inactive; negative”; under setting [5], “inactive; negative”; under setting [6], “inactive; negative”; (Test System: AMES SALMONELLA TYPHIMURIUM, Strain/Indicator: TA1537, Metabolic Activation: HAMSTER, LIVER, S-9, AROCLOR 1254, Method: STANDARD PLATE) “inactive; negative”; under setting [7], “inactive; negative”; under setting [8], “inactive; negative”. The mutagenic call reads like this: (Test System: AMES SALMONELLA TYPHIMURIUM, Strain/Indicator: TA1538, Metabolic Activation: HAMSTER, LIVER, S-9, AROCLOR 1254, Method: STANDARD PLATE) “inactive; negative”; (Test System: AMES SALMONELLA TYPHIMURIUM, Strain/Indicator: TA1538, Metabolic Activation: NONE, Method: STANDARD PLATE) “inactive; negative”; (Test System: AMES SALMONELLA TYPHIMURIUM, Strain/Indicator: TA1538, Metabolic Activation: RAT, LIVER, S-9, AROCLOR 1254, Method: STANDARD PLATE) “inactive; negative”; (Test System: MOUSE LYMPHOMA, Strain/Indicator: L5178Y (TK+/TK-), Metabolic Activation: NONE, Method: SUSPENSION/PLATE) “active; positive. reevaluation of results: positive”; (Test System: MOUSE LYMPHOMA, Strain/Indicator: L5178Y (TK+/TK-), Metabolic Activation: RAT, LIVER, S-9, AROCLOR 1254, Method: SUSPENSION/PLATE) “active; positive. reevaluation of results: positive”.
